This passage reports RBA results from ChEMBL document CHEMBL1126937, “Synthesis of new 11 beta-substituted spirolactone derivatives. Relationship with affinity for mineralocorticoid and glucocorticoid receptors” (J Med Chem, 1993).

For the assay, the target named is T1, Mineralocorticoid receptor (Homo sapiens) (UniProt P08235).
T1 sequence (whole entry): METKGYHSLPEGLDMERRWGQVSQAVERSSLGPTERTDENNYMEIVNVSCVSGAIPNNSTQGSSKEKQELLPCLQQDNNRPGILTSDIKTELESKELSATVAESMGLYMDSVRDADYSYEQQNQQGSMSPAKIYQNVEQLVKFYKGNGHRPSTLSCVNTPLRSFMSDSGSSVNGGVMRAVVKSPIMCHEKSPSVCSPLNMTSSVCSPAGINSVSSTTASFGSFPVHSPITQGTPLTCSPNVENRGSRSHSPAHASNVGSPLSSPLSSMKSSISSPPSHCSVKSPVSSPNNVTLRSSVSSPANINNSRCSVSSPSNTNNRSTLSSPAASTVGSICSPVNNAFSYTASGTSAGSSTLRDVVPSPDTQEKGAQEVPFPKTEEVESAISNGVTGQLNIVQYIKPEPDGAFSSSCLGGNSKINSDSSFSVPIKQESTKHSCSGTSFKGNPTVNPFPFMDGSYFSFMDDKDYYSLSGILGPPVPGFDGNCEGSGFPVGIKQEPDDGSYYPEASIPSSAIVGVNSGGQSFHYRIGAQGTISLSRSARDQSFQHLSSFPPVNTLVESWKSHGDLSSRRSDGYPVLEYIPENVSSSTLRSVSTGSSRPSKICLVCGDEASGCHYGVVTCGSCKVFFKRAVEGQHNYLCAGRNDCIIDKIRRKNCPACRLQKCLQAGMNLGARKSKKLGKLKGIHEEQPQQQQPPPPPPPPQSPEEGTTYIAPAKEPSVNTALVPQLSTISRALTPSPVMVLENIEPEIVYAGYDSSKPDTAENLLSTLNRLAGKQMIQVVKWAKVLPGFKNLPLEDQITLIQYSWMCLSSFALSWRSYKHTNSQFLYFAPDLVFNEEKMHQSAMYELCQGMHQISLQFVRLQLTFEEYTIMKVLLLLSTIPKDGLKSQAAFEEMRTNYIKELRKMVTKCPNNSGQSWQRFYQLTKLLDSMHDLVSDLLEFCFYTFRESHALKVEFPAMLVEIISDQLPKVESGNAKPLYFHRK
In words: Displacement of [3H]aldosterone from mineralocorticoid receptor of rabbit kidney. The conditions noted are these: Oryctolagus cuniculus; target entry is the homologue from another species.
Compound `C=C/C=C1\C[C@@]2(C)C(CC[C@@]23CCC(=O)O3)C2CCC3=CC(=O)CCC3=C12` (some centres undefined) returned an RBA of 2%.

With `C=C[C@H]1C[C@@]2(C)C(CC[C@@]23CCC(=O)O3)C2CCC3=CC(=O)CCC3=C21` (some centres undefined), the RBA came out at 14%.

Compound `C/C=C1\C[C@@]2(C)C(CC[C@@]23CCC(=O)O3)C2CCC3=CC(=O)CCC3=C12` (some centres undefined) gave an RBA of 7%.

Consider `C=C=C[C@H]1C[C@@]2(C)C(CC[C@@]23CCC(=O)O3)C2CCC3=CC(=O)CCC3=C21` (some centres undefined), for which the RBA is 110%. The result for `COCCC[C@H]1C[C@@]2(C)C(CC[C@@]23CCC(=O)O3)C2CCC3=CC(=O)CCC3=C21` (some centres undefined) reads 0.5%. On to `CC(=O)S[C@@H]1CC2=CC(=O)C=C[C@]2(C)[C@H]2CC[C@@]3(C)[C@@H]([C@@H]4C[C@@H]4[C@@]34CCC(=O)O4)[C@H]12`, for which the RBA was 21%.

Regarding `C[C@]12CCC(=O)C=C1CC[C@@H]1[C@@H]2[C@@H](O)C[C@]2(C=O)[C@@H](C(=O)CO)CC[C@@H]12`, the RBA is 100%. The result for `CC(=O)S[C@@H]1CC2=CC(=O)CC[C@]2(C)[C@H]2CC[C@@]3(C)[C@@H](CC[C@@]34CCC(=O)O4)[C@H]12` reads 4%; that for `C[C@H]1C[C@@]2(C)C(CC[C@@]23CCC(=O)O3)C2CCC3=CC(=O)CCC3=C21` (some centres undefined), 6%; that for `CC(C)(C)OCCC[C@H]1C[C@@]2(C)C(CC[C@@]23CCC(=O)O3)C2CCC3=CC(=O)CCC3=C21` (some centres undefined), less than 0.1%. The result for `C[C@]12CCC3=C4CCC(=O)C=C4CCC3C1CC[C@@]21CCC(=O)O1` (some centres undefined) reads 13%; that for `C[C@@H]1C[C@H]2[C@@H]3CCC4=CC(=O)C=C[C@]4(C)[C@@]3(F)[C@@H](O)C[C@]2(C)[C@@]1(O)C(=O)CO`, 20%; that for `C[C@]12C[C@H](CCCO)C3=C4CCC(=O)C=C4CCC3C1CC[C@@]21CCC(=O)O1` (some centres undefined), less than 0.1%. The result for `C[C@]12CCC(=O)C=C1C=C[C@@H]1[C@@H]2CC[C@@]2(C)[C@H]1CC[C@@]21CCC(=O)O1` reads 1%.
